Measured values from US7084239B1, “Cancer peptides of NY-ESO-1/CAG-3” (The United States of America as represented by the …, priority 1997, dated 2006).

How the values were obtained:
Assay type in all cases: cell-based, human
[1] = system: CTL clone 5; assay: GM-CSF release by CTL clone 5 on peptide-pulsed EBV B cells; details: for GM-CSF release by CTL clone 5, EXPT. 2 (586EBV): 586EBV cells; for GM-CSF release by CTL clone 5, EXPT. 2 (586EBV) / GM-CSF release by CTL clone 5, EXPT. 1 (1510EBV): peptide 0.1 μg/ml for 90 min, 5 × 10^4 CTL clone 5; for GM-CSF release by CTL clone 5, EXPT. 1 (1510EBV): 1510EBV cells; for CTL clone 5 GM-CSF release: 1510EBV cells incubated with peptide at 0.1 μg/ml for 90 min
Protocol: (§1) DNA transfection and GM-CSF assay were done as previously described (Wang, R. F., P. F. Robbins, Y. Kawakami, X. Q. Kang, and S. A. Rosenberg, 1995, J. Exp. Med. 181:799–804). Briefly, […] of DNA carrying a different fragment and 50 ng of the HLA-A31 DNA were mixed with 2 μl of lipofectamine in 100 μl of serum-free DMEM for 15–45 min. The DNA/lipofectamine mixture was then added to the COS-7 (5×10^4) cells and incubated overnight. The following day, cells were washed twice with DMEM medium. TIL586, CTL clone 5 or CTL clone 10 were added at a concentration of 5×10^4 cells/well in AIM-V medium containing 120 IU/ml of IL-2. After 18–24 h incubation, 100 μl of supernatant was collected and GM-CSF was measured in a standard ELISA assay (R+D Systems, Minneapolis, Minn.). For peptides, 586EBV, 1510EBV and T2 cells were incubated with peptides at 37° C. for 90 min, and then washed three times with AIM-V medium containing 120 IU/ml of IL-2. T cells were added and incubated for additional 18–24 h, 100 μl of supernatant was collected for GM-CSF assay. In some experiments, IFN-γ release assays were done using a standard ELISA kit (Endogen, Woburn, Mass.).
These peptides were pulsed onto HLA-A31-positive 1510EBV B cells and tested for their ability to stimulate cytokine release by CTL clone 5. […] CTL clone 10 recognized the same peptide as CTL clone 5 (data not shown). […] The reactivity of CTL clone 5 was undetectable when either the ESO9-54 or the ESO10-127 peptides were used at concentrations below 100 nM to sensitize EBV cells.

[2] = system: CTL clone 2; assay: T cell recognition (GM-CSF release) of peptide-pulsed EBV B cells by CTL clone 2; details: peptide pulsed onto 1510EBV or 586EBV B cells
Description: (§2) FIGS. 7A–7C. An alternative open reading frame of the NY-ESO-1 gene and antigenic peptides recognized by CTL. FIG. 7A. Identification of antigenic peptides from the ORF2. Thirty peptides were synthesized based on all potential ORFs and screened. Representative data are shown here. Seven peptides derived from ORF2 (see FIG. 3A) were pulsed on HLA-A31 positive 1510EBV B cells and tested for T cell recognition based on GM-CSF release ([…], SEQ ID NO: 123; […], SEQ ID NO: 124; […], SEQ ID NO: 125; […], SEQ ID NO: 46; […], SEQ ID NO: 47; […], SEQ ID NO: 126; and […], SEQ ID NO: 127). 1510 EBV alone was used as a negative control. FIG. 7B. 1510EBV B cells were labeled with chromium for 2 h. The ESORF2-10-18 peptide was then pulsed on the chromium-labeled […] (solid square) and HLA-A31-negative 1102EBV (open circle) at different concentrations. 1510EBV pulsed with ESO10-53, which was recognized by CTL clone 5, was used for the specificity control (solid triangle). After peptide incubation and three washes, cytolysis of target cells by CTL-clone 2 was determined in a 4-h chromium release assay at an E:T ratio of 20:1. FIG. 7C. Several tumor lines and fresh breast tumors were tested for recognition by CTL clone 2 to determine whether the ORF2 is translated in different tumors. 1510EBV B cells pulsed with […] (SEQ ID NO: 25) (ESO10-53), […] (SEQ ID NO: 47) (ORF2-10-18), or alone were included to evaluate the reactivity and specificity of CTL clone 2 and 5. Expression of HLA-A31 on the tumor cells is indicated.
as §1, with “For peptides, 586EBV, 1510EBV and T2 cells were incubated with peptides at 37° C. for 90 min, and then washed three times with AIM-V medium containing 120 IU/ml of IL-2. T cells were added and incubated for additional 18–24 h, 100 μl of supernatant was collected for GM-CSF assay. In some experiments, IFN-γ release assays were done using a standard ELISA kit (Endogen, Woburn, Mass.).” left out
CTL clone 5 and TIL1244 were used for the specificity controls. […] To test the hypothesis that CTL may recognize a peptide from a gene product translated from an alternative open reading frame of the same gene, synthetic peptides were made with HLA-A31 Binding motif on the basis of amino acid sequence predicted from the second open reading frames (ORF2) (FIG. 3A). […]

[3] = system: CTL clone 2; assay: Chromium release cytolysis of peptide-pulsed target cells by CTL clone 2; details: 4-h chromium release, E:T ratio of 20:1 (FIG. 7B)
Description: as §2, with “Expression of HLA-A31 on the tumor cells is indicated.” left out
Cytolytic assay was done as previously described (Kawakami, Y et al., 1994, Proc. Natl. Acad. Sci. USA 91:6458–62). […] The cells were washed again, counted, and then mixed with TIL586 or CTL clone 5 at the indicated ratio of effector: targets (E:T). Chromium release was measured after 4 h incubation. […] Percentage of specific lysis was determined from the equation (A−B)/(C−B)×100 where A is lysis of 586EBV B cells by TIL586 or clone 5 in the presence of a peptide, B is spontaneous release from 586EBV B cells in presence of the same peptide but in the absence of effector cells, and C is the maximum chromium release. […]

Sequence	GM-CSF release by CTL clone 5, EXPT. 2 (586EBV) [1]	GM-CSF release by CTL clone 5, EXPT. 1 (1510EBV) [1]	CTL clone 5 GM-CSF release [1]	further results
AAGPGGGAPR (listed as Homo sapiens)	676 (SEQ. ID NO: 34)	688	–	–
AAQERRVPR (listed as Homo sapiens) [ESORF2-9-19]	–	–	–	Recognition by CTL clone 2, in words [2]: recognized
AARASGPGGGAPR (listed as Homo sapiens)	738 (SEQ. ID NO: 28)	844	–	–
AASGLNGCCR (listed as Homo sapiens) [ESO10-68]	–	–	<50 (SEQ. ID NO: 21) pg/ml	–
AGAARASGPGGGAPR (listed as Homo sapiens)	532 (SEQ. ID NO: 26)	728	–	–
AIGPGGGAPR (listed as Homo sapiens)	550 (SEQ. ID NO: 35)	428	–	–
ALGPGGGAPR (listed as Homo sapiens)	378 (SEQ. ID NO: 36)	200	–	–
AQPPSGQRR (listed as Homo sapiens) [ESO9-90]	–	–	<50 (SEQ. ID NO: 6) pg/ml	–
ARASGPGGGAPR (listed as Homo sapiens)	738 (SEQ. ID NO: 29)	840	–	–
ASGPGGGAPH (listed as Homo sapiens)	<50 (SEQ. ID NO: 40)	<50	–	–
ASGPGGGAPK (listed as Homo sapiens)	<50 (SEQ. ID NO: 39)	<50	–	–
ASGPGGGAPRG (listed as Homo sapiens)	<50 (SEQ. ID NO: 32)	<50	–	–
ATGPGGGAPR (listed as Homo sapiens)	1158 (SEQ. ID NO: 38)	1630	–	–
ATPMEAELAR (listed as Homo sapiens) [ESO10-97]	–	–	<50 (SEQ. ID NO: 17) pg/ml	–
AVGPGGGAPR (listed as Homo sapiens)	512 (SEQ. ID NO: 37)	556	–	–
FLAQPPSGQR (listed as Homo sapiens) [ESO10-170]	–	–	<50 (SEQ. ID NO: 18) pg/ml	–
GAARASGPGGGAPR (listed as Homo sapiens)	678 (SEQ. ID NO: 27)	659	–	–
GATGGRGPR (listed as Homo sapiens) [ESO9-38]	–	–	<50 (SEQ. ID NO: 9) pg/ml	–
GPGGGAPR (listed as Homo sapiens)	<50 (SEQ. ID NO: 31)	<50	–	–

Sequence	GM-CSF release by CTL clone 5, EXPT. 2 (586EBV) [1]	GM-CSF release by CTL clone 5, EXPT. 1 (1510EBV) [1]	CTL clone 5 GM-CSF release [1]	further results
GPRGAGAAR (listed as Homo sapiens) [ESO9-45]	–	–	<50 (SEQ. ID NO: 10) pg/ml	–
IRLTAADHR (listed as Homo sapiens) [ESO9-35]	–	–	<50 (SEQ. ID NO: 13) pg/ml	–
LAAQERRVPR (listed as Homo sapiens) [ESORF2-10-18]	–	–	–	Recognition by CTL clone 2, in words [2]: recognized; Lysis of peptide-pulsed HLA-A31-negative 1102EBV by CTL clone 2 [3]: failed to lyse; Lysis of peptide-pulsed 1510EBV by CTL clone 2 ([3]; peptide titration): capable of lysing
LAQPPSGQR (listed as Homo sapiens) [ESO9-89]	–	–	<50 (SEQ. ID NO: 11) pg/ml	–
LAQPPSGQRR (listed as Homo sapiens) [ESO10-171]	–	–	<50 (SEQ. ID NO: 22) pg/ml	–
LNGCCRCGAR (listed as Homo sapiens) [ESO10-72]	–	–	<50 (SEQ. ID NO: 24) pg/ml	–
LSGPGGGAPR (listed as Homo sapiens)	<50 (SEQ. ID NO: 43)	<50	–	–
PMEAELARR [ESO9-99]	–	–	<50 (SEQ. ID NO: 8) pg/ml	–
RASGPGGGAPR (listed as Homo sapiens)	708 (SEQ. ID NO: 30)	851	–	–
RCGARGPESR (listed as Homo sapiens) [ESO10-77]	–	–	<50 (SEQ. ID NO: 20) pg/ml	–
RGPRGAGAAR (listed as Homo sapiens) [ESO10-44]	–	–	<50 (SEQ. ID NO: 23) pg/ml	–
RSGPGGGAPR (listed as Homo sapiens)	<50 (SEQ. ID NO: 44)	<50	–	–
SGPGGGAPR (listed as Homo sapiens) [ESO9-54]	<50 (SEQ. ID NO: 14)	<50	304 (SEQ. ID NO: 14) pg/ml	Recognition by CTL clone 5 (cytokine release), in words ([1]; peptide pulsed onto HLA-A31-positive 1510EBV or 586EBV B cells): weakly recognized
SGPGGGAPRG (listed as Homo sapiens)	<50 (SEQ. ID NO: 33)	<50	–	–
TIRLTAADHR (listed as Homo sapiens) [ESO10-34]	–	–	<50 (SEQ. ID NO: 16) pg/ml	–
TPMEAELAR (listed as Homo sapiens) [ESO9-98]	–	–	<50 (SEQ. ID NO: 7) pg/ml	–
TPMEAELARR (listed as Homo sapiens) [ESO10-98]	–	–	<50 (SEQ. ID NO: 19) pg/ml	–
TSGPGGGAPR (listed as Homo sapiens)	346 (SEQ. ID NO: 41)	320	–	–
VSGPGGGAPR (listed as Homo sapiens)	666 (SEQ. ID NO: 42)	825	–	–
